The target in one test is T1, AT1 receptor (Homo sapiens, UniProt P30556).
T1 construct: host or cells: HEK293FT, transient transfection
T1 sequence (P30556 1-359): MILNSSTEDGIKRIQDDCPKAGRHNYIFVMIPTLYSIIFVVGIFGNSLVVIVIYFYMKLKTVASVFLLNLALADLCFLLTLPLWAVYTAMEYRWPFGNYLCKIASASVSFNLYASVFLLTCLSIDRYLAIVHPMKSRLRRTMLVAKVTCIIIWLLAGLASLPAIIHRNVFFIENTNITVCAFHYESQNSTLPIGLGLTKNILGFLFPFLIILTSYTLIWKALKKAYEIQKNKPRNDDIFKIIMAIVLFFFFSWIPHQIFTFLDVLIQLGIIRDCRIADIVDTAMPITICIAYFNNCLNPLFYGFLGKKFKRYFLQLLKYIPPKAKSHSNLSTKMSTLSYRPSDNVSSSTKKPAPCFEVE
Description: NanoBRET competition binding of TAMRA-AngII, cells expressing Nluc-AT1. The note with it: various concentrations of TAMRA-AngII, increasing concentrations of competitor. As to the method: Figure 8 Competition binding of TAMRA-AngII to the AT1 receptor and the AT1-AT2 heteromer.
The relative BRET ratio was calculated by normalizing the data, as described in the figure legends. All individual experiments were conducted with duplicate wells.

Another test addresses T2, β2AR (Homo sapiens, UniProt P07550).
T2 construct: host or cells: HEK293FT, transient transfection
Description: NanoBRET saturation ligand binding, cells expressing Nluc-β2AR. As to the method:
(§1) All individual experiments were conducted with duplicate wells.
(§2) All data were presented and analyzed using GraphPad Prism 8.0. Saturation binding data were fitted with one-site nonlinear regression for specific binding. Competition binding data were fitted using logarithmic nonlinear regression (three parameter). Statistical analysis was performed as described in the relevant figure/table legends or in the text, with p < 0.05 considered significant.
Background: In BRET a luciferase serves as donor, and the signal depends on an acceptor being close.

A further test addresses T3, AT1-β2AR heteromer (Homo sapiens, UniProt P07550).
T3 construct: expressed in transfected cells; host or cells: HEK293FT, transient cotransfection
Description: NanoBRET saturation ligand binding, Receptor-HIT configuration, cells expressing Nluc-AT1 + β2AR. As to conditions: mean ± SEM, n = 8, BODIPY-propranolol saturation, non-specific binding with 10 μM propranolol, read-out: Kd (affinity of binding to AT1-β2AR heteromers). As to the method: as §1, §2

Structures are written as SMILES.

T2 sequence (P07550 whole entry): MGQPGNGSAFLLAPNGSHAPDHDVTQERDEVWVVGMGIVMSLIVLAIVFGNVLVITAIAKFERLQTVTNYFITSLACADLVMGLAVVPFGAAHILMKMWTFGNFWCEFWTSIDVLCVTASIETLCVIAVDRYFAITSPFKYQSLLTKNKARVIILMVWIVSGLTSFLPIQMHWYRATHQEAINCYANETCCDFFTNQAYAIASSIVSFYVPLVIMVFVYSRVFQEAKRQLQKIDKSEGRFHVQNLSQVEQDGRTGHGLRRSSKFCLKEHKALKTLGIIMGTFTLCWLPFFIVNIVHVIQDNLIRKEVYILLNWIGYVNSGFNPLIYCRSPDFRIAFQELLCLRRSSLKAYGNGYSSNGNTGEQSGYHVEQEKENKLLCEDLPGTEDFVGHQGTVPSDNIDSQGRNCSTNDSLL
T3 sequence (P07550 whole entry, one chain of several): as the sequence (P07550 whole entry) above

For the molecule `Cc1cc(Cn2cnc3c2C[C@@H](C(=O)O)N(C(=O)C(c2ccccc2)c2ccccc2)C3)ccc1N(C)C` [PD 123319], on AT1 receptor, the “displacement of TAMRA-AngII bound to Nluc-AT1” value is reported as “unable to see any displacement”.
As to `CC[C@H](C)[C@H](NC(=O)[C@H](Cc1ccc(O)cc1)NC(=O)[C@@H](NC(=O)[C@H](CCCNC(=N)N)NC(=O)[C@H](CC(=O)O)NC(=O)CCCCCNC(=O)COc1ccc(/C=C/c2ccc3n2[B-](F)(F)[N+]2=C(c4cccs4)C=CC2=C3)cc1)C(C)C)C(=O)N[C@@H](Cc1c[nH]cn1)C(=O)N1CCC[C@H]1C(=O)N[C@@H](Cc1ccccc1)C(=O)O` [BODIPY-AngII], on β2AR (cells expressing Nluc-β2AR only, presence or absence of 10 μM propranolol), the “specific binding to Nluc-β2AR” value is listed as “no specific binding”. Further, the Kd (in general, the equilibrium constant for the complex coming apart) was 3.9 ± 0.5 nM on β2AR (mean ± SEM, n = 4, cells expressing Nluc-β2AR, BODIPY-propranolol saturation, non-specific binding with 10 μM propranolol, read-out: Kd (affinity of binding to β2ARs)) and 8.8 ± 4 nM on AT1-β2AR heteromer.

(Values after PMC7866079, “Investigation of Receptor Heteromers Using NanoBRET Ligand Binding” (International Journal of Molecular Sciences, 2021).)
